Data reported in patent publication US20240316036A1, “DISULFIDE CONTAINING THERAPEUTICS AND DIAGNOSTICS” (Singular Genomics Systems, Inc., priority 2023, published 2024).

Assay: Cleavage kinetics of cleavable linking moieties (CLM) with reducing agent THPP, compounds immobilized on a solid support
Type: physicochemical
Conditions: 1 mM THPP, 55° C.
Experimental: For the assay, a plurality of compounds containing the CLM was immobilized on a solid support. Next, a cleavage solution containing 10 mM THPP as a reducing agent was introduced for controlled periods of time. A second labeled compound was introduced to the solid support; compounds without a CLM will bind the labeled compounds. The cleavage reaction was carried out at 55° C., in a buffer solution at 9.5 pH. The degree of cleavage was measured as the percent of compounds that include a labeled compound as a function of time.
A similar assay as described supra was performed, except that the concentration of the reducing agent was diluted to 1 mM of THPP and the cleavage reaction was carried out at 55° C.

Substance: methylene disulfide [CLM #1]
- cleavage reaction: slow
